Laboratory results from paper PMC8329713, “The identification and structural analysis of potential 14-3-3 interaction sites on the bone regulator protein Schnurri-3” (Acta Crystallographica. Section F, Structural Biology …, 2021).
Non-standard residues stand in square brackets, D forms with d. No end group written: not given here. pS = N[C@@H](COP(=O)(O)O)C(=O)O

Experiments:
[1] = biological target: T1, 14-3-3σ (Homo sapiens, UniProt P31947); assay: Isothermal titration calorimetry (ITC) under reducing conditions, 14-3-3σ; type: binding; details: FITC-labelled peptide titrated into 14-3-3σ, 18 injections of 2 µl, 25°C, 50 mM Tris pH 7.5, 150 mM NaCl, 5 mM MgCl2, 2 mM 2-mercaptoethanol, 0.05%(v/v) Tween-20
T1 construct: The full-length 14-3-3 isoforms were used in biophysical assays; His6 (cleaved yes); made in house; host or cells: Escherichia coli NiCo21(DE3)
T1 sequence (P31947 1-248): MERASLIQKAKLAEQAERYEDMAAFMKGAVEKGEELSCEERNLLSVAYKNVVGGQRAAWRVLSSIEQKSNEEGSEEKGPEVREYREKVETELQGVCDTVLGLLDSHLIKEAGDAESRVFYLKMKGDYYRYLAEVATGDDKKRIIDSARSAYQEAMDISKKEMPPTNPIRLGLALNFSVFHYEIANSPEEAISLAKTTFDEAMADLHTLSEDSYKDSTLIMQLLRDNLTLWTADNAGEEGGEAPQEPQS
Procedure: (§1) 14-3-3 isoforms γ, τ, σ, ɛ, η, ζ, β (full length) and 14-3-3σΔC (residues 231–248 deleted) were expressed with a His6 tag in Escherichia coli NiCo21(DE3) competent cells from a pPRoeX-Htb vector in 2×TY medium. Purification was carried out by affinity chromatography on nickel columns (HisTrap HP, 5 ml). The tags were cleaved with TEV protease. The proteins were then loaded again onto nickel columns to remove any noncleaved protein. A final purification step was performed by loading the proteins onto a size-exclusion chromatography column (HiLoad 26/600 Superdex 75 pg) equilibrated in 20 mM Tris–HCl pH 7.5, 150 mM NaCl, 2 mM DTT. All purification steps were performed on an ÄKTApure protein-purification system (Cytiva). The full-length 14-3-3 isoforms were used in biophysical assays and the 14-3-3σΔC construct was used for crystallographic purposes. […]
(§2) Fluorescence polarization (FP) binding assays were carried out in Corning 384-well 3575 plates, serially diluting (twofold) the 14-3-3 isoforms in the presence of 10 nM FITC-labelled peptides. […] The data were collected on a PHERAstar FSX plate reader (BMG Labtech) with an excitation wavelength of 485 nm and an emisson wavelength of 520 nm. […] The data were analysed using the MicroCal PEAQ-ITC Analysis Software (Malvern).

[2] = tested on: 14-3-3 isoforms; assay: Fluorescence polarization (FP) binding assay, all 14-3-3 isoforms taken together; set-up: species or system human; details: FITC-labelled peptide 10 nM, only a modest FP signal at the highest concentrations, not possible to calculate Kd values
Procedure: as §1, §2

[3] = biological target: T1, 14-3-3σ; assay: X-ray protein crystallography with 14-3-3σΔC; details: crystal structures with 14-3-3σΔC, PDB 7b13 (SHN3pS542) and 7b15 (SHN3pT869)
Procedure: 14-3-3 isoforms γ, τ, σ, ɛ, η, ζ, β (full length) and 14-3-3σΔC (residues 231–248 deleted) were expressed with a His6 tag in Escherichia coli NiCo21(DE3) competent cells from a pPRoeX-Htb vector in 2×TY medium. Purification was carried out by affinity chromatography on nickel columns (HisTrap HP, 5 ml). The tags were cleaved with TEV protease. The proteins were then loaded again onto nickel columns to remove any noncleaved protein. A final purification step was performed by loading the proteins onto a size-exclusion chromatography column (HiLoad 26/600 Superdex 75 pg) equilibrated in 20 mM Tris–HCl pH 7.5, 150 mM NaCl, 2 mM DTT. All purification steps were performed on an ÄKTApure protein-purification system (Cytiva). The full-length 14-3-3 isoforms were used in biophysical assays and the 14-3-3σΔC construct was used for crystallographic purposes.
The peptides SHN3pS542 (LLRSHpS542MPSAAC) and SHN3pT869 (PDRPDpT869EPEPPP) were ordered with a purity of >95% from GenScript in an N-terminally acetylated version and an N-terminally FITC-Ahx-labelled version.
For protein crystallization, a C-terminally truncated version of 14-3-3σ was used (14-3-3σΔC; deletion of the 17 C-terminal amino acids; Schumacher et al., 2010[▸]). […]

[4] = biological target: T2, 14-3-3γ (full length) (human, UniProt P61981 1-247); assay: ITC; peptide titrated into the cell containing the 14-3-3 protein, 18 injections of 2 µl, 25°C; 50 mM Tris pH 7.5, 150 mM NaCl, 5 mM MgCl2, 2 mM 2-mercaptoethanol, 0.05% Tween-20 (reducing conditions); details: both partners purified
T2 construct: 14-3-3 protein gamma, human, full length; Expressed from a pPRoeX-Htb vector; also called 14-3-3 isoform γ; source: E. coli NiCo21(DE3), purified (nickel column, TEV cleavage, second nickel column, SEC)
T2 sequence (looked up): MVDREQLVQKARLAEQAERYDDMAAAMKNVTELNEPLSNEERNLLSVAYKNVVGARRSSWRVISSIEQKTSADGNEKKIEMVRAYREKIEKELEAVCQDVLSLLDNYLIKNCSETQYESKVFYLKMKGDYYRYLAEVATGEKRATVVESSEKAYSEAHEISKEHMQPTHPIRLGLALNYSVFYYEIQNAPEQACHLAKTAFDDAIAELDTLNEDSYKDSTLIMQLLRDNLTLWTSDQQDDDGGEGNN

[5] = biological target: T3, 14-3-3σ (full length) (human, UniProt P31947 1-248); assay: as above; details: both partners purified
T3 construct: 14-3-3 protein sigma, human, full length; Expressed from a pPRoeX-Htb vector; also called 14-3-3 isoform σ; the σ isoform; source: E. coli NiCo21(DE3), purified (nickel column, TEV cleavage, second nickel column, SEC)
T3 sequence (looked up): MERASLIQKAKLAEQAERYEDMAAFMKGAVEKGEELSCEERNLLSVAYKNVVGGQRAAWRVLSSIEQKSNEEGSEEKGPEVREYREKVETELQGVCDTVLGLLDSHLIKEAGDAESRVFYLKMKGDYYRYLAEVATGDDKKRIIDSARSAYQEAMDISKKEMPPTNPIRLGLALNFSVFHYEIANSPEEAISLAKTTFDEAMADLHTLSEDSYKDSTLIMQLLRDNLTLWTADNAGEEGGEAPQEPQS

Q: With “LLRSHpS542MPSAAC [SHN3pS542-FITC, N-terminally FITC-Ahx-labelled version of SHN3pS542, as used in the FP assay]” as the molecule, how does the Kd [1] read?
A: The Kd was 4.8 ± 0.8 µM.

Q: For “PDRPDpT869EPEPPP [SHN3pT869, synthetic phosphopeptide PDRPDpT869EPEPPP derived from human Schnurri-3 (SHN3)]”, which “binding to 14-3-3 isoforms (in words)” value [2] is on record?
A: The value was “very weak 14-3-3 binder”.

Q: What about the “polar contacts with 14-3-3σ residues” value [3] of the same molecule?
A: The value was “Polar contacts are established between Glu872 and Glu870 of SHN3pT869 and Asn50, Lys122, Lys49 and Asn175 on the C-terminal side of the peptide and between Asp868 and Pro867 of SHN3pT869 and Asn226 on the N-terminal side of the peptide”.

B1: SHN3pS542 peptide, N-terminally acetylated (peptide)
peptide: Ac-LLRSH[pS]MPSAAC
modifications: also: phosphoserine at 542, position not mapped
notes: Schnurri-3 (SHN3, transcription factor HIVEP3), human, 12-mer around phosphorylated Ser542; also called the acetylated peptide; source: synthetic peptide, bought: GenScript (purity >95%)
Q: Which results are given for B1?
A: Kd [4]: 0.69 ± 0.15 µM; Kd [5]: 5.8 ± 1.3 µM
